Experimental data from patent publication EP3498270A1, “SLOW RELEASE FORMULATIONS OF CELL CYCLE REGULATORS AND ANTI-CANCER AGENTS FOR LOCAL TREATMENT OF SOLID CANCER” (Urogen Pharma Ltd., priority 2017, dated 2019).
Where two headings read alike, the source gives them in different places.

What was measured:
[1] = tested on: UMUC-3 cells; test: XTT cell viability assay; format: cell-based, human; conditions: for viability at 1000 µM / EC50: Homo sapiens
Protocol: Cells were treated with 0-16mM HU/ Control (DMSO or RPMI medium only) for up to 20 hours. […] XTT assay for cytotoxicity was then performed and plates were analyzed in an ELISA reader at wave length of 490nm.
The methods used were as described in the other examples. Briefly, UMUC-3 cells were cultured in 96 well microculture plates. Cells were pretreated with 1mM HU (or DMSO- vehicle control) for 2 hours. […] The percentage of viable cells presented in the figures and table was calculated from untreated cells with viability of 100%.

[2] = tested on: RT-4 cells; test: Cell cytotoxicity / apoptosis (Annexin V FITC and PI staining, flow cytometry); format: cell-based, human; conditions: 1mM HU 20 hours, wash; for late apoptosis: after 2 hours Gem 5µM 8 hours, 72 hours from HU washes; for percentages of apoptotic cells: after 2 hours 10µM MMC 8 hours, 48 hours after HU withdrawal
Protocol: After 24 hours to 5 days from HU washes, cells were stained with Annexin V FITC and PI for identifying apoptotic cells according to standard protocols.

[3] = tested on: UMUC-3 cells; test: Cell cycle distribution (PI staining, flow cytometry); format: cell-based, human
Protocol: (§1) A Cyan Flow cytometer was used for determining DNA content and cell cycle distribution of UMUC-3 and RT-4 cells. Cells were seeded in 6 well plates (10^6 cells/well) and incubated overnight. Cells were then cultured with cell cycle modulator (0.1-15mM HU or 0.25µM PD0332991) or with DMSO (vehicle control) for up to 20 hours (HU) or 24 hours (PD0332991). Then, the HU, PD0332991 (or DMSO) was washed and replaced by fresh media and cells were fixed at different time points following washes. The fixation was done by a fixation buffer that purchased from ENCO (Cayman). Minimum 2 hours after the fixation, cells were washed and labeled with propidium iodide (PI) for 15 min in the dark. Cells were analyzed by flow cytometry (PI staining was detected in FL3, […] laser).
(§2) Unless otherwise indicated, methods were as described in Example 1. In order to investigate the influence of HU on cell cycle distribution in bladder cancer cell lines, UMUC-3 and RT-4 cells were treated with 1mM HU (or DMSO for vehicle control) for 20 hours. Cell cycle distribution was observed immediately after HU exposure and 2, 4, 6, 8, and 10 hours following HU withdrawal.

[4] = tested on: RT-4 cells; test: as above; format: cell-based, human; conditions: 1mM HU for 20 hours, 4 hours from HU withdrawal
Protocol: as §1, §2

[5] = tested on: UMUC-3 cells; test: Cell cytotoxicity / apoptosis (Annexin V FITC and PI staining, flow cytometry); conditions: 1mM HU 20 hours, wash, after 2 hours 10µM MMC 8 hours; 48 hours after HU withdrawal
[6] = tested on: RT-4 cells; test: XTT cell viability assay; format: cell-based; conditions: Homo sapiens, RT-4, read-out: MMC EC50 concentration value

Question: How did the viability ([1]; 1mM HU 20 hours, wash, after 2 hours Gem (EC50) 8 hours) turn out when `Nc1ccn([C@@H]2O[C@H](CO)[C@@H](O)C2(F)F)c(=O)n1` [Gem, Gemcitabine] was run?
Answer: Its viability is 50.9%.

Question: What about the late apoptosis [2] of the same compound?
Answer: Its late apoptosis is 22.2%.

Question: `NC(=O)NO` [HU, Hydroxyurea] was tested. Which “percentage of cells at the S phase” value ([3]; 1mM HU for 20 hours, 4 hours from HU withdrawal) did it give?
Answer: The value was 57.0%.

Question: And the “increase in S phase accumulation” value ([3]; 1mM HU for 20 hours, versus DMSO control, 4 hours from HU withdrawal)?
Answer: The value was “approximately 3 fold”.

Question: And the S phase accumulation ([3]; HU 0.5 to 4mM for 20 hours, 6 hours after the HU wash)?
Answer: Its S phase accumulation is “greater than 50%”.

Question: What about the “influence on cell cycle distribution” value ([3]; HU concentrations lower than 0.1mM) of the same compound?
Answer: Its value is “no significant influence”.

Question: What about the “percentage of cells at the S phase” value [4] of the same compound?
Answer: The value was 48.6%.

Question: What about the “increase in S phase accumulation” value ([4]; versus DMSO control) of the same compound?
Answer: The value was “approximately 6 fold”.

Question: What about the “percentages of apoptotic cells” value [5] of the same compound?
Answer: Its value is 8.1%.

Question: What about the viability at 1000 µM ([1]; UMUC3, 1mM HU 20 hours, wash, after 2 hours Gem (EC50) 8 hours) of the same compound?
Answer: Its viability at 1000 µM is 71.3%.

Question: What about the viability at 1000 µM ([1]; UMUC3, short exposure: 1mM HU 2 hours, 2 hours wash, 20µM MMC 2 hours, analysed after 48 hours) of the same compound?
Answer: The viability at 1000 µM was 86.1%.

Question: What about the “percentages of apoptotic cells” value [2] of the same compound?
Answer: Its value is 4.8%.

Question: And the late apoptosis [2]?
Answer: The late apoptosis was 5.9%.

Question: For `CO[C@@]12[C@H](COC(N)=O)C3=C(C(=O)C(C)=C(N)C3=O)N1C[C@@H]1N[C@@H]12` [MMC, Mitomycin C], which “percentages of apoptotic cells” value [5] is on record?
Answer: Its value is 21.4%.

Question: What about the EC50 ([1]; UMUC3, 2 h, read-out: MMC EC50 value) of the same compound?
Answer: The EC50 was 20 µM.

Question: And the EC50 ([1]; UMUC3, read-out: MMC EC50 concentration value)?
Answer: The EC50 was 10 µM.

Question: And the EC50 [6]?
Answer: The EC50 was 5 to 20 µM.

Question: What about the “percentages of apoptotic cells” value [2] of the same compound?
Answer: Its value is 13.4%.
